The text below walks through data of ChEMBL document CHEMBL6127068, “Discovery of novel nitrofuran PROTAC-like compounds as dual inhibitors and degraders targeting STING” (Eur J Med Chem, 2024).

Series [1] addresses T1, Protein cereblon/Stimulator of interferon genes protein (Homo sapiens, UniProt Q96SW2+Q86WV6). Put plainly: PROTAC activity at CRBN/STING in human THP-1 cells assessed as induction of STING degradation at 10 uM incubated for 24 hrs by western blot analysis. It is filed as cell-based. In general terms: In western blotting, separated proteins are transferred to a membrane and probed.

Series [2] is described as follows: Cytotoxicity against HUVEC assessed as reduction in cell viability at 3.3 uM incubated for 48 hrs by MTT assay. It is filed as toxicity, cell-based. To be noted: human, HUVEC cells, read-out: INH. (In general: Formazan colour is commonly taken as a measure of viable cells.)
Series [3] in a line: Cytotoxicity against HEK293T cells assessed as reduction in cell viability at 3.3 uM incubated for 48 hrs by MTT assay. It is filed as toxicity, cell-based, HEK-293T. The following applies: human, read-out: INH.
The target in series [4] is T2, von Hippel-Lindau disease tumor suppressor/Stimulator of interferon genes protein (Homo sapiens, UniProt P40337+Q86WV6). Put plainly: PROTAC activity at VHL/STING (unknown origin) assessed as induction of protein degradation. It is filed as protein assay.
Target sequence in this assay (P40337 whole entry): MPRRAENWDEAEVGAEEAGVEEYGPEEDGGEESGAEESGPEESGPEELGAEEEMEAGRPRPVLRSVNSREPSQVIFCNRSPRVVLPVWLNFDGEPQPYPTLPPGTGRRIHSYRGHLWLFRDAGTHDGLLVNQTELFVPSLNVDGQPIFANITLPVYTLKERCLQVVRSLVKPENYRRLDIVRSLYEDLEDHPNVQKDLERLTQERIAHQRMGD
Target sequence in this assay (Q86WV6 whole entry): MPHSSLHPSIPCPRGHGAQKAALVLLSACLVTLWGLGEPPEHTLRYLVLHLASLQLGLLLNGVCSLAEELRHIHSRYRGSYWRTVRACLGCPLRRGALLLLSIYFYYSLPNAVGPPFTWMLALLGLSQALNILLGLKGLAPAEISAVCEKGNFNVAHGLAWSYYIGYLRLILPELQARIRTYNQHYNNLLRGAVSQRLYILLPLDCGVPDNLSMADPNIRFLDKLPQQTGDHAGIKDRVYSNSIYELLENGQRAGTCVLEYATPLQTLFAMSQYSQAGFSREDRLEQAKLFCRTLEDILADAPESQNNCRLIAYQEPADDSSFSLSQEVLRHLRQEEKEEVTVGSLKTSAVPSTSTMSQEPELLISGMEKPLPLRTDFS
For series [5], the target named is T2, von Hippel-Lindau disease tumor suppressor/Stimulator of interferon genes protein. As to the kind of experiment: PROTAC activity at VHL/STING (unknown origin) assessed as induction of protein degradation relative to control. The format is protein assay.
Target sequence in this assay (P40337 whole entry, looked up): as the sequence (P40337 whole entry) above
Target sequence in this assay (Q86WV6 whole entry, looked up): as the sequence (Q86WV6 whole entry) above
In series [6] the target is T1, Protein cereblon/Stimulator of interferon genes protein. Put plainly: PROTAC activity at CRBN/STING in human THP-1 cells assessed as induction of STING degradation at 10 uM pretreated with proteasome inhibitor, MG132 for 1 hr followed by incubation with compound for 24 hrs by western blot analysis. It is filed as cell-based.

Active and inactive are the calls of the source. The rule behind the calls is not given here.

T1 sequence (Q86WV6 whole entry, looked up): as the sequence (Q86WV6 whole entry) above
T1 sequence (Q96SW2 whole entry, looked up): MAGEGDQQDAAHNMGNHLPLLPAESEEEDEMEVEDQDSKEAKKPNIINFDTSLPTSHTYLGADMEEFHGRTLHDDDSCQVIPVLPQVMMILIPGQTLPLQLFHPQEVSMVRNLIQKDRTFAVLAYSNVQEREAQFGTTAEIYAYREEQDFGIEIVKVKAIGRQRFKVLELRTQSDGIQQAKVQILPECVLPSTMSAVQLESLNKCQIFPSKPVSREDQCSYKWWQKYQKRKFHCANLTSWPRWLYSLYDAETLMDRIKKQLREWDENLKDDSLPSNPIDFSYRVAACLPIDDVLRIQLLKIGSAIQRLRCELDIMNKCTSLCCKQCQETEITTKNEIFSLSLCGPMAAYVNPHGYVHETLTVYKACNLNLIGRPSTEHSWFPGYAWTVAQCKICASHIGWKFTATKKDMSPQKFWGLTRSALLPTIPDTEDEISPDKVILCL

On to `O=C1CCC(N2C(=O)c3cccc(OCc4cn(CC(=O)OCc5ccc(NC(=O)c6ccc([N+](=O)[O-])o6)cc5)nn4)c3C2=O)C(=O)N1` (stereo not drawn), for which the outcome in series [1] was Active.
Still for that read-out and setting: under `O=C1CCC(N2C(=O)c3ccc(OCc4cn(CCCC(=O)OCCc5ccc(NC(=O)c6ccc([N+](=O)[O-])o6)cc5)nn4)cc3C2=O)C(=O)N1` (stereo not drawn) stands 76%.
With `O=C1CCC(N2C(=O)c3cccc(OCc4cn(CCCC(=O)Oc5ccc(NC(=O)c6ccc([N+](=O)[O-])o6)cc5)nn4)c3C2=O)C(=O)N1` (stereo not drawn), the outcome in series [1] was Active.
The same measure, in the same setting: under `O=C1CCC(N2C(=O)c3cccc(OC(=O)CCCc4cn(CCCCCC(=O)Oc5ccc(NC(=O)c6ccc([N+](=O)[O-])o6)cc5)nn4)c3C2=O)C(=O)N1` (stereo not drawn) stands 71%; under `O=C1CCC(N2C(=O)c3cccc(OCc4cn(CCCCCC(=O)Oc5ccc(NC(=O)c6ccc([N+](=O)[O-])o6)cc5)nn4)c3C2=O)C(=O)N1` (stereo not drawn), “inactive”.
For `CCCCc1ccc(NC(=O)c2ccc([N+](=O)[O-])o2)cc1`, the figures for the cytotoxicity at 48 h, 3.3 µM in series [2] and in series [3] were 68.2% and 80.1%, respectively.
The DC50 is the midpoint of the concentration-degradation curve. In the case of `Cc1ncsc1-c1ccc([C@H](C)NC(=O)[C@@H]2C[C@@H](O)CN2C(=O)[C@@H](NC(=O)CCC(=O)NCCCNC(=O)c2cccc(S(=O)(=O)n3cc(C(=O)NCCCCCC(=O)Oc4ccc(NC(=O)c5ccc(-c6ccccc6)cc5)cc4NS(=O)(=O)c4ccc(F)cc4)ccc3=O)c2)C(C)(C)C)cc1`, in series [4], the half-maximal degradation concentration (DC50) was 530 nM. Moreover, in series [5], the Activity came to 56.6%.
`O=C1CCC(N2C(=O)c3cccc(OCc4cn(CCCCCC(=O)OCc5ccc(NC(=O)c6ccc([N+](=O)[O-])o6)cc5)nn4)c3C2=O)C(=O)N1` (stereo not drawn): in series [1], the outcome was Active.
Turning to `O=C1CCC(N2C(=O)c3ccc(OCc4cn(CC(=O)OCCc5ccc(NC(=O)c6ccc([N+](=O)[O-])o6)cc5)nn4)cc3C2=O)C(=O)N1` (stereo not drawn), in series [1], the outcome was Active.
As to `CN1C(=O)CCC(N2C(=O)c3cccc(OCc4cn(CCCCCC(=O)OCCc5ccc(NC(=O)c6ccc([N+](=O)[O-])o6)cc5)nn4)c3C2=O)C1=O` (stereo not drawn), in series [6], the outcome was Active.
For `O=C1CCC(N2C(=O)c3cccc(OCc4cn(CCCC(=O)OCc5ccc(NC(=O)c6ccc([N+](=O)[O-])o6)cc5)nn4)c3C2=O)C(=O)N1` (stereo not drawn), the outcome in series [1] was Active.
